Test results: patent US20050070554A1, “Substituted heterocyclic compounds and methods of use” (Amgen Inc., priority 2003, published 2005)
Read-outs that look alike come from different tables or passages of the source.

Biological target: T1, LCK (Homo sapiens, UniProt P06239)
T1 construct: LCK KD GST (225-509); GST
Experiment: LCK-Homogeneous Time Resolved Fluorescent (HTRF) Kinase Assay
Type: biochemical
Description: LCK-Homogeneous Time Resolved Fluorescent (HTRF) Kinase Assay:
The LCK HTRF assay begins with LCK in the presence of ATP phosphorylating the biotinylated peptide Gastrin. The reaction incubates for 90 min. To quench the assay detection reagents are added which both stop the reaction by diluting out the enzyme and chelating the metals due to the presence of EDTA. Once the detection reagents are added the assay incubates for 30 min to allow for equilibration of the detection reagents.
Buffer conditions are as follows: 50 mM HEPES pH 7.5, 50 mM NaCl, 20 mM MgCl, 5 mM MnCl, 2 mM DTT, 0.05% BSA.
The assay is quenched and stopped with 160 μL of detection reagent. Detection reagents are as follows: Buffer made of 50 mM Tris, pH 7.5, 100 mM NaCl, 3 mM EDTA, 0.05% BSA, 0.1% Tween20.
The assay plate is read in either a Discovery or a RubyStar.

[1] = read-out: activity in the LCK-HTRF Kinase Assay

T1 sequence (P06239 225-509): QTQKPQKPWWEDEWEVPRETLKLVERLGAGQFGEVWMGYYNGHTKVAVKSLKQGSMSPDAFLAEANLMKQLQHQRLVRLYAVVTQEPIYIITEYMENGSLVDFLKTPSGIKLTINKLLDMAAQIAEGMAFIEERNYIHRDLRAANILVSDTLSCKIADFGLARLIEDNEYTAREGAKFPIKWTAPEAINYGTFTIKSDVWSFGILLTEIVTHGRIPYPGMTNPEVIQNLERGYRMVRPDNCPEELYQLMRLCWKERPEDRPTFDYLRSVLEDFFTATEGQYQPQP

SMILES	IC50 [1] [nM]	IC50 [nM]
COc1cc(Nc2ncc3c(=O)n(-c4c(C)cccc4C)c4nc5ccccc5n4c3n2)ccc1OCC1CCN(C)CC1 [No. 12, 6-(2,6-dimethylphenyl)-2-((3-(methyloxy)-4-(((1-methyl-4-piperidinyl)methyl)oxy)phenyl)amino)-pyrimido[5′,4′:5,6]pyrimido[1,2-a]benzimidazol-5(6H)-one]	< 1000	
COc1cccc(CN2CCN(c3ccc(Nc4ncc5c(=O)n(-c6c(C)cccc6C)c6nc7ccccc7n6c5n4)cc3)CC2)c1 [No. 52, 6-(2,6-dimethylphenyl)-2-((4-(4-((3-(methyloxy)-phenyl)methyl)-1-piperazinyl)phenyl)amino)-pyrimido[5′,4′:5,6]pyrimido[1,2-a]benzimidazol-5(6H)-one]	< 1000	
COc1cc(Nc2ncc3c(=O)n(-c4c(C)cccc4C)c4nc5ccccc5n4c3n2)cc(OC)c1OCCN1CCN(C)CC1 [No. 22, 2-((3,5-bis(methyloxy)-4-((2-(4-methyl-1-piperazinyl)ethyl)oxy)phenyl)amino)-6-(2,6-dimethylphenyl)pyrimido[5′,4′:5,6]pyrimido[1,2-a]-benzimidazol-5(6H)-one]	< 1000	
Cc1cccc(C)c1-n1c(=O)c2cnc(Nc3ccc(N4CCCNCC4)cc3)nc2n2c3ccccc3nc12 [No. 75, 2-((4-(1,4-diazepan-1-yl)phenyl)amino)-6-(2,6-dimethylphenyl)pyrimido[5′,4′:5,6]pyrimido[1,2-a]-benzimidazol-5(6H)-one]	< 1000	
Cc1cccc(-n2c(=O)c3cnc(Nc4ccc(N5CCN(C)CC5)cc4)nc3n3c4ccccc4nc23)c1 [No. 80, 6-(3-methylphenyl)-2-((4-(4-methyl-1-piperazinyl)-phenyl)amino)pyrimido[5′,4′:5,6]pyrimido[1,2-a]-benzimidazol-5(6H)-one]		< 1000
Cc1cccc(C)c1-n1c(=O)c2cnc(Nc3ccc(OCCN4CCCCC4)c(Cl)c3)nc2n2c3ccccc3nc12 [No. 59, 2-((3-chloro-4-((2-(1-piperidinyl)ethyl)oxy)phenyl)-amino)-6-(2,6-dimethylphenyl)pyrimido[5′,4′:5,6]-pyrimido[1,2-a]benzimidazol-5(6H)-one]	< 1000	
Cc1cccc(C)c1-n1c(=O)c2cnc(Nc3ccc(OCCN4CCN(C)CC4)cc3)nc2n2c3ccccc3nc12 [No. 34, 6-(2,6-dimethylphenyl)-2-((4-((2-(4-methyl-1-piperazinyl)ethyl)oxy)phenyl)amino)-pyrimido[5′,4′:5,6]pyrimido[1,2-a]benzimidazol-5(6H)-one]	< 1000	
Cc1cccc(C)c1-n1c(=O)c2cnc(Nc3ccc(OCCCN4CCCCC4)cc3)nc2n2c3ccccc3nc12 [No. 32, 6-(2,6-dimethylphenyl)-2-((4-((3-(1-piperidinyl)-propyl)oxy)phenyl)amino)pyrimido[5′,4′:5,6]-pyrimido[1,2-a]benzimidazol-5(6H)-one]		< 1000
COc1ccc(-n2c(=O)c3cnc(Nc4ccc(N5CCN(C)CC5)cc4)nc3n3c4ccccc4nc23)cc1 [No. 57, 6-(4-(methyloxy)phenyl)-2-((4-(4-methyl-1-piperazinyl)phenyl)amino)pyrimido[5′,4′:5,6]-pyrimido[1,2-a]benzimidazol-5(6H)-one]	< 1000	
Cc1cccc(C)c1-n1c(=O)c2cnc(Nc3ccc(N4CCN(CC5CCCCC5)CC4)cc3)nc2n2c3ccccc3nc12 [No. 42, 2-((4-(4-(cyclohexylmethyl)-1-piperazinyl)phenyl)-amino)-6-(2,6-dimethylphenyl)pyrimido[5′,4′:5,6]-pyrimido[1,2-a]benzimidazol-5(6H)-one]	< 1000	
COc1cc(Nc2ncc3c(=O)n(-c4c(C)cccc4C)c4nc5ccccc5n4c3n2)cc(OC)c1OCCN1CCCCC1 [No. 25, 2-((3,5-bis(methyloxy)-4-((2-(1-piperidinyl)ethyl)-oxy)phenyl)amino)-6-(2,6-dimethylphenyl)-pyrimido[5′,4′:5,6]pyrimido[1,2-a]benzimidazol-5(6H)-one]	< 1000	
Cc1cccc(C)c1-n1c(=O)c2cnc(Nc3ccc(OCCCN4CCCCC4)c(F)c3)nc2n2c3ccccc3nc12 [No. 5, 6-(2,6-dimethylphenyl)-2-((3-fluoro-4-((3-(1-piperidinyl)propyl)oxy)phenyl)amino)-pyrimido[5′,4′:5,6]pyrimido[1,2-a]benzimidazol-5(6H)-one]	< 1000	

Further lines, results first:

IC50 [1] [nM]	IC50 [nM]	SMILES
< 1000		Cc1cccc(C)c1-n1c(=O)c2cnc(Nc3ccc(N4CCN(Cc5cccc(Cl)c5)CC4)cc3)nc2n2c3ccccc3nc12 [No. 51, 2-((4-(4-((3-chlorophenyl)methyl)-1-piperazinyl)-phenyl)amino)-6-(2,6-dimethylphenyl)-pyrimido[5′,4′:5,6]pyrimido[1,2-a]benzimidazol-5(6H)-one]
< 1000		Cc1cccc(C)c1-n1c(=O)c2cnc(Nc3ccc(OC[C@H]4CCCN4)cc3)nc2n2c3ccccc3nc12 [No. 23, 6-(2,6-dimethylphenyl)-2-((4-(((2R)-2-pyrrolidinylmethyl)oxy)phenyl)amino)-pyrimido[5′,4′:5,6]pyrimido[1,2-a]benzimidazol-5(6H)-one]
< 1000		Cc1cccc(C)c1-n1c(=O)c2cnc(Nc3ccc(N4CCCN(C)CC4)cc3)nc2n2c3ccccc3nc12 [No. 74, 6-(2,6-dimethylphenyl)-2-((4-(4-methyl-1,4-diazepan-1-yl)phenyl)amino)pyrimido[5′,4′:5,6]pyrimido[1,2-a]benzimidazol-5(6H)-one]
< 1000		COc1cc(Nc2ncc3c(=O)n(-c4c(C)cccc4C)c4nc5ccccc5n4c3n2)cc(OC)c1OCCN1CCOCC1 [No. 30, 2-((3,5-bis(methyloxy)-4-((2-(4-morpholinyl)ethyl)-oxy)phenyl)amino)-6-(2,6-dimethylphenyl)-pyrimido[5′,4′:5,6]pyrimido[1,2-a]benzimidazol-5(6H)-one]
< 1000		Cc1cccc(C)c1-n1c(=O)c2cnc(Nc3ccc(OCCN4CCCCC4)cc3)nc2n2c3ccccc3nc12 [No. 27, 6-(2,6-dimethylphenyl)-2-((4-((2-(1-piperidinyl)-ethyl)oxy)phenyl)amino)pyrimido[5′,4′:5,6]-pyrimido[1,2-a]benzimidazol-5(6H)-one]
< 1000		Cc1cccc(C)c1-n1c(=O)c2cnc(Nc3ccc(N4CCN(C)CC4)c(Cl)c3)nc2n2c3ccccc3nc12 [No. 40, 2-((3-chloro-4-(4-methyl-1-piperazinyl)phenyl)-amino)-6-(2,6-dimethylphenyl)pyrimido[5′,4′:5,6]-pyrimido[1,2-a]benzimidazol-5(6H)-one]
< 1000		COc1cc(Nc2ncc3c(=O)n(-c4c(C)cccc4C)c4nc5ccccc5n4c3n2)cc(OCCN2CCN(C)CC2)c1OC [No. 11, 2-((3,4-bis(methyloxy)-5-((2-(4-methyl-1-piperazinyl)ethyl)oxy)phenyl)amino)-6-(2,6-dimethylphenyl)pyrimido[5′,4′:5,6]pyrimido[1,2-a]-benzimidazol-5(6H)-one]
< 1000		Cc1cccc(C)c1-n1c(=O)c2cnc(Nc3ccc(OCCNC(C)C)c(Cl)c3)nc2n2c3ccccc3nc12 [No. 47, 2-((3-chloro-4-((2-((1-methylethyl)amino)ethyl)oxy)-phenyl)amino)-6-(2,6-dimethylphenyl)-pyrimido[5′,4′:5,6]pyrimido[1,2-a]benzimidazol-5(6H)-one]
